In US10085445B2, “Biocorrosion inhibitor for metal” (KURARAY CO., LTD., priority 2013, dated 2018):
≈ marks a conversion by molar mass, not a printed value.

Columns and labels:
male CRj:CD(SD) rats = assay: Oral toxicity test (14-day repeated dose); format: in vivo, rat; conditions: for NOEL (No Observed Effect Level): oral gavage once per day for 14 days, male rats
Description: A test substance was emulsified and dispersed in 2%-gum arabic aqueous solution (containing 0.5%-Tween80), and forcibly administered to 6-week-old male CRj:CD(SD) rats with an oral gavage needle once per day for 14 days. The body weight variation and general condition were observed during the dosing period. The rats were fasted for one day from the final administration day (with free ingestion of drinking water), and anatomy, collection of blood samples (various blood tests), and mass measurement of the major organs were performed the next day of the final administration. In addition, histopathological examination (optical microscopic observation of HE-stained sliced section) of the liver, kidney, spleen and testis was also performed. The dose was 1000, 250, 60, 15 or 0 mg/k day (administered liquid amount=1 ml/100 g (body weight)/day), and 5 rats were used for each dose.

[1] = system: Pseudokirchneriella subcapitata; assay: Toxicity test on algae (algae growth inhibitory test, OECD 201); format: cell-based; conditions: Selenastrum capricornutum; 72 hr, 23° C., growth inhibition; read-out: ErC50 (72 hr)
Procedure: By reference to the OECD test guideline No. 201, an algae growth inhibitory test of a test substance was performed. To be specific, the following test substance was diluted with a test medium to give a defined dose. A suspension of algae grown to the exponential growth phase by preculture was added at an initial concentration of 1×10^4 cells/ml. After shaking culture in a light irradiation-type bio shaker (Bio Shaker BR-180 LF manufactured by TAITEC) at 23° C., algae cells were counted by a flow cytometer (Cell Lab Quant SC manufactured by BECKMAN COULTER) at 24, 48, and 72 hr from the start of the test, and the growth degree of each test dose was calculated based on the growth degree of the normal control as 100%. Also, ErC50 was calculated from the equation of the approximate curve in a graph plotting the growth inhibitory rate. As a standard substance, potassium dichromate was used.
algae: Pseudokirchneriella subcapitata
test substance (1) and test substance (2), 100, 32, 10, 3.2, 1, 0.32 mg/L (geometric ratio: √{square root over ( )}10) and 0 mg/L (normal control), respectively
standard substance: 3.2, 1, 0.32 mg/L and 0 mg/L (normal control)

[2] = system: sludge in the sewage treatment plant; assay: Bactericidal test on sludge (MTT method); format: cell-based; conditions: 24 hr and 48 hr, about 25° C., visual and MTT
Procedure: Glucose, peptone, and monopotassium dihydrogen phosphate (each 5 g) were dissolved in water (1 L), and adjusted to pH 7.0±1.0 with sodium hydroxide to give synthetic sewer water, to which sludge in the sewage treatment plant in Mizushima area, Kurashiki-shi, Okayama-ken, Japan, was added at 30 ppm based on dry mass, whereby a bacterial culture was prepared. On the other hand, a test substance was diluted with distilled water in 10 phases to a final concentration of 1000-0.004 ppm (geometric ratio=4) on a 24 well microplate, and used as a test solution. Two wells were used for each concentration. As a comparison target, distilled water+bacterial culture was used as “bacterial culture blank”, and distilled water alone was used as “blank”.
The bacterial culture and test solution prepared above were mixed at a volume ratio 1:1, stood in a thermostatic tank at ambient temperature (about 25° C.) for 24 hr and 48 hr, and the level of sludge influence at each concentration of the test substance was visually observed and confirm by the MTT method. MTT reagent is converted by microorganism mitochondria in the sludge, forms formazan and develops a blue color.

SMILES	death case (male CRj:CD(SD) rats; maximum dose of 1000 mg/kg/day, oral, 14 days)	NOEL (No Observed Effect Level) (male CRj:CD(SD) rats)	EC50 [1]	sterilizing concentration [2]
O=CCCCCCCCC=O [NL, 1,9-nonanedial]	death case was not found	250 mg/kg		
O=CCCCC=O [glutaraldehyde]		5 mg/kg	9 µg/mL (≈ 89.9 µM)	63 ppm
